According to patent publication US6355799B1, “Substituted benzene compounds, process for their preparation, and herbicidal and defoliant compositions containing them” (ISK Americas Incorporated, priority 1997, dated 2002):

Legend:
Format in all cases: in vivo
[1] = tested on: large crabgrass (Digitaria sanguinalis, DIGSA); assay: Pre-emerge test, greenhouse herbicide activity screening; settings: for Pre-emerge Herbicidal Activity DIGSA: phytotoxicity rating 0-100, 14 days after application; for phytotoxicity rating DIGSA: pre-emerge, 14 days after application, rating scale 0-100
Summary of the method: (§1)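 Rating: 0–100 visual injury, 14 DAA. Application: acetone, 187 l/ha, 15–1000 g ai/ha, flat-fan track sprayer with nozzle 40–45 cm above soil or canopy. Post-emerge runs used 0.25% v/v surfactant on 2–3 leaf plants.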

[2] = tested on: lambsquarters (Chenopodium album, CHEAL); assay: as above; settings: for Pre-emerge Herbicidal Activity CHEAL: phytotoxicity rating 0-100, 14 days after application; for phytotoxicity rating CHEAL: pre-emerge, 14 days after application, rating scale 0-100
Summary of the method: as §1

[3] = tested on: green foxtail (Setaria viridis, SETVI); assay: as above; settings: for Pre-emerge Herbicidal Activity SETVI: phytotoxicity rating 0-100, 14 days after application; for phytotoxicity rating SETVI: pre-emerge, 14 days after application, rating scale 0-100
Summary of the method: as §1

[4] = tested on: velvetleaf (Abutilon theophrasti, ABUTH); assay: as above; settings: for Pre-emerge Herbicidal Activity ABUTH: phytotoxicity rating 0-100, 14 days after application; for phytotoxicity rating ABUTH: pre-emerge, 14 days after application, rating scale 0-100
Summary of the method: as §1

[5] = tested on: common ragweed (Ambrosia artemisizfolia L., AMBEL); assay: as above; settings: for Pre-emerge Herbicidal Activity AMBEL: phytotoxicity rating 0-100, 14 days after application; for phytotoxicity rating AMBEL: pre-emerge, 14 days after application, rating scale 0-100
Summary of the method: as §1

[6] = tested on: johnsongrass (Sorghum halepense, SORHA); assay: as above; settings: for Pre-emerge Herbicidal Activity SORHA: phytotoxicity rating 0-100, 14 days after application; for phytotoxicity rating SORHA: pre-emerge, 14 days after application, rating scale 0-100
Summary of the method: as §1

[7] = tested on: barnyardgrass (Echinochloa crus-galli, ECHCG); assay: as above; settings: for Pre-emerge Herbicidal Activity ECHCG: phytotoxicity rating 0-100, 14 days after application; for phytotoxicity rating ECHCG: pre-emerge, 14 days after application, rating scale 0-100
Summary of the method: as §1

[8] = tested on: sicklepod (Cassia obtusifolia, CASOB); assay: as above; settings: for Pre-emerge Herbicidal Activity CASOB: phytotoxicity rating 0-100, 14 days after application; for phytotoxicity rating CASOB: pre-emerge, 14 days after application, rating scale 0-100
Summary of the method: as §1

[9] = tested on: ivyleaf morningglory (Ipomoea hederacea, IPOHE); assay: as above; settings: for Pre-emerge Herbicidal Activity IPOHE: phytotoxicity rating 0-100, 14 days after application; for phytotoxicity rating IPOHE: pre-emerge, 14 days after application, rating scale 0-100
Summary of the method: as §1

[10] = tested on: redroot pigweed (Amaranthus retroflexus, AMARE); assay: as above; settings: for Pre-emerge Herbicidal Activity AMARE: phytotoxicity rating 0-100, 14 days after application; for phytotoxicity rating AMARE: pre-emerge, 14 days after application, rating scale 0-100
Summary of the method: (§2)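 Visual ratings on a 0-100 scale (0 no damage, 100 all plants dead) were taken at 14 days after treatment. Rates of 15-1000 g ai/ha in acetone, 187 l/ha, were sprayed onto soil one day after planting (pre-emerge) or onto 2-3 leaf plants with 0.25% v/v surfactant (post-emerge).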

[11] = tested on: large crabgrass (Digitaria sanguinalis, DIGSA); assay: Post-emerge test, greenhouse herbicide activity screening; settings: post-emerge, 14 days after application, rating scale 0-100
Summary of the method: (§3)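 Compounds in acetone were track-sprayed at 15-1000 g ai/ha (187 l/ha) on sandy loam pots: pre-emerge one day after seeding, post-emerge at 2-3 leaf stage with 0.25% v/v non-ionic surfactant. Phytotoxicity was rated 14 days later on a 0 (no damage) to 100 (complete death) scale.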

[12] = tested on: lambsquarters (Chenopodium album, CHEAL); assay: as above; settings: post-emerge, 14 days after application, rating scale 0-100
Summary of the method: as §3

[13] = tested on: green foxtail (Setaria viridis, SETVI); assay: as above; settings: post-emerge, 14 days after application, rating scale 0-100
Summary of the method: as §3

[14] = tested on: velvetleaf (Abutilon theophrasti, ABUTH); assay: as above; settings: post-emerge, 14 days after application, rating scale 0-100
Summary of the method: as §3

[15] = tested on: johnsongrass (Sorghum halepense, SORHA); assay: as above; settings: post-emerge, 14 days after application, rating scale 0-100
Summary of the method: as §3

[16] = tested on: redroot pigweed (Amaranthus retroflexus, AMARE); assay: as above; settings: post-emerge, 14 days after application
Summary of the method: as §3

[17] = tested on: barnyardgrass (Echinochloa crus-galli, ECHCG); assay: as above; settings: post-emerge, 14 days after application, rating scale 0-100
Summary of the method: as §3

[18] = tested on: sicklepod (Cassia obtusifolia, CASOB); assay: as above; settings: post-emerge, 14 days after application, rating scale 0-100
Summary of the method: as §3

[19] = tested on: ivyleaf morningglory (Ipomoea hederacea, IPOHE); assay: as above; settings: post-emerge, 14 days after application, rating scale 0-100
Summary of the method: as §3

[20] = tested on: field corn (Zea mays L., var. Dekalb 535, CORN); assay: Post-emerge test, crop safety; settings: post-emerge, 14 days after application, rating scale 0-100
Summary of the method: (§4)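 Plants grown in 10 cm pots of sandy loam mix received acetone-dissolved compounds through a moving flat-fan nozzle. Doses ranged from 15 to 1000 g ai/ha. Pre-emerge pots were seeded one day earlier, post-emerge pots 8–21 days earlier. Fourteen days on, each pot was graded 0–100 for damage.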

[21] = tested on: upland rice (Oryza sp., var. Tebonnet, RICE); assay: Post-emerge test, crop safety; settings: post-emerge, 14 days after application, rating scale 0-100
Summary of the method: as §4

[22] = tested on: field corn (Zea mays L., var. Dekalb 535, CORN); assay: Pre-emerge test, crop safety; settings: for Pre-emerge Herbicidal Activity CORN: crop damage rating 0-100, 14 days after application; for phytotoxicity rating CORN: pre-emerge, 14 days after application, rating scale 0-100
Summary of the method: as §2

[23] = tested on: upland rice (Oryza sp., var. Tebonnet, RICE); assay: Pre-emerge test, crop safety; settings: for Pre-emerge Herbicidal Activity RICE: crop damage rating 0-100, 14 days after application; for phytotoxicity rating RICE: pre-emerge, 14 days after application, rating scale 0-100
Summary of the method: as §2

[24] = 63 g ai/ha, rating scale 0-100 (0 no damage, 100 complete death)
[25] = 250 g ai/ha, rating scale 0-100

Cn1c(C(F)(F)F)cc(=O)n(-c2ccc(Cl)cc2NC(=O)Oc2ccccc2)c1=O [4-50]
0: Pre-emerge Herbicidal Activity DIGSA ([1]; 63 g ai/ha) | Pre-emerge Herbicidal Activity SETVI ([3]; 63 g ai/ha) | Pre-emerge Herbicidal Activity AMBEL ([5]; 63 g ai/ha) | Pre-emerge Herbicidal Activity AMBEL ([5]; 250 g ai/ha) | Pre-emerge Herbicidal Activity SORHA ([6]; 63 g ai/ha) | Pre-emerge Herbicidal Activity SORHA ([6]; 250 g ai/ha) | Pre-emerge Herbicidal Activity ECHCG ([7]; 63 g ai/ha) | Pre-emerge Herbicidal Activity ECHCG ([7]; 250 g ai/ha) | Pre-emerge Herbicidal Activity CASOB ([8]; 63 g ai/ha) | Pre-emerge Herbicidal Activity CASOB ([8]; 250 g ai/ha) | Pre-emerge Herbicidal Activity IPOHE ([9]; 63 g ai/ha) | phytotoxicity rating DIGSA ([11]; 63 g ai/ha) | phytotoxicity rating DIGSA ([11]; 250 g ai/ha) | phytotoxicity rating SETVI ([13]; 63 g ai/ha) | phytotoxicity rating SETVI ([13]; 250 g ai/ha) | phytotoxicity rating SORHA ([15]; 63 g ai/ha) | phytotoxicity rating SORHA ([15]; 250 g ai/ha) | phytotoxicity rating ECHCG ([17]; 63 g ai/ha) | phytotoxicity rating ECHCG ([17]; 250 g ai/ha) | phytotoxicity rating CASOB ([18]; 63 g ai/ha) | phytotoxicity rating CORN (crop damage) ([20]; 63 g ai/ha) | phytotoxicity rating RICE (crop damage) ([21]; 63 g ai/ha) | phytotoxicity rating RICE (crop damage) ([21]; 250 g ai/ha) | Pre-emerge Herbicidal Activity CORN ([22]; 63 g ai/ha) | Pre-emerge Herbicidal Activity CORN ([22]; 250 g ai/ha) | Pre-emerge Herbicidal Activity RICE ([23]; 63 g ai/ha)
20: Pre-emerge Herbicidal Activity ABUTH ([4]; 63 g ai/ha) | Pre-emerge Herbicidal Activity AMARE ([10]; 63 g ai/ha) | phytotoxicity rating CASOB ([18]; 250 g ai/ha)
90: phytotoxicity rating IPOHE ([19]; 250 g ai/ha)
30: Pre-emerge Herbicidal Activity DIGSA ([1]; 250 g ai/ha) | Pre-emerge Herbicidal Activity IPOHE ([9]; 250 g ai/ha) | phytotoxicity rating AMARE [16, 24] | phytotoxicity rating IPOHE ([19]; 63 g ai/ha)
10: Pre-emerge Herbicidal Activity SETVI ([3]; 250 g ai/ha) | phytotoxicity rating CORN (crop damage) ([20]; 250 g ai/ha) | Pre-emerge Herbicidal Activity RICE ([23]; 250 g ai/ha)
60: phytotoxicity rating ABUTH ([14]; 63 g ai/ha)
95: phytotoxicity rating CHEAL ([12]; 250 g ai/ha) | phytotoxicity rating ABUTH ([14]; 250 g ai/ha)
40: Pre-emerge Herbicidal Activity CHEAL ([2]; 63 g ai/ha) | phytotoxicity rating CHEAL ([12]; 63 g ai/ha)
70: phytotoxicity rating AMARE [16, 25]
100: Pre-emerge Herbicidal Activity CHEAL ([2]; 250 g ai/ha) | Pre-emerge Herbicidal Activity ABUTH ([4]; 250 g ai/ha) | Pre-emerge Herbicidal Activity AMARE ([10]; 250 g ai/ha)

COc1c(Cl)cc(F)c(-n2c(=O)cc(C(F)(F)F)n(C)c2=O)c1NNC(=O)c1ccccc1 [15-3]
80: Post-emerge Herbicidal Activity DIGSA (phytotoxicity rating) ([11]; 250 g ai/ha) | Post-emerge Herbicidal Activity SETVI (phytotoxicity rating) ([13]; 250 g ai/ha) | Post-emerge Herbicidal Activity CORN (crop damage rating) ([20]; 250 g ai/ha)
90: Post-emerge Herbicidal Activity SORHA (phytotoxicity rating) ([15]; 250 g ai/ha) | Post-emerge Herbicidal Activity ECHCG (phytotoxicity rating) ([17]; 250 g ai/ha) | Post-emerge Herbicidal Activity RICE (crop damage rating) ([21]; 250 g ai/ha) | phytotoxicity rating CORN ([22]; 63 g ai/ha)
70: Post-emerge Herbicidal Activity CASOB (phytotoxicity rating) ([18]; 63 g ai/ha)
100: phytotoxicity rating DIGSA ([1]; 63 g ai/ha) | phytotoxicity rating DIGSA ([1]; 250 g ai/ha) | phytotoxicity rating CHEAL ([2]; 63 g ai/ha) | phytotoxicity rating CHEAL ([2]; 250 g ai/ha) | phytotoxicity rating SETVI ([3]; 63 g ai/ha) | phytotoxicity rating SETVI ([3]; 250 g ai/ha) | phytotoxicity rating ABUTH ([4]; 63 g ai/ha) | phytotoxicity rating ABUTH ([4]; 250 g ai/ha) | phytotoxicity rating AMBEL ([5]; 63 g ai/ha) | phytotoxicity rating AMBEL ([5]; 250 g ai/ha) | phytotoxicity rating SORHA ([6]; 63 g ai/ha) | phytotoxicity rating SORHA ([6]; 250 g ai/ha) | phytotoxicity rating ECHCG ([7]; 63 g ai/ha) | phytotoxicity rating ECHCG ([7]; 250 g ai/ha) | phytotoxicity rating CASOB ([8]; 63 g ai/ha) | phytotoxicity rating CASOB ([8]; 250 g ai/ha) | phytotoxicity rating IPOHE ([9]; 63 g ai/ha) | phytotoxicity rating IPOHE ([9]; 250 g ai/ha) | phytotoxicity rating AMARE ([10]; 63 g ai/ha) | phytotoxicity rating AMARE ([10]; 250 g ai/ha) | Post-emerge Herbicidal Activity CHEAL (phytotoxicity rating) ([12]; 250 g ai/ha) | Post-emerge Herbicidal Activity ABUTH (phytotoxicity rating) ([14]; 63 g ai/ha) | Post-emerge Herbicidal Activity ABUTH (phytotoxicity rating) ([14]; 250 g ai/ha) | Post-emerge Herbicidal Activity AMARE (phytotoxicity rating) [16, 25] | Post-emerge Herbicidal Activity CASOB (phytotoxicity rating) ([18]; 250 g ai/ha) | Post-emerge Herbicidal Activity IPOHE (phytotoxicity rating) ([19]; 250 g ai/ha) | phytotoxicity rating CORN ([22]; 250 g ai/ha) | phytotoxicity rating RICE ([23]; 250 g ai/ha)
10: Post-emerge Herbicidal Activity ECHCG (phytotoxicity rating) ([17]; 63 g ai/ha)
95: Post-emerge Herbicidal Activity CHEAL (phytotoxicity rating) ([12]; 63 g ai/ha) | Post-emerge Herbicidal Activity AMARE (phytotoxicity rating) [16, 24] | Post-emerge Herbicidal Activity IPOHE (phytotoxicity rating) ([19]; 63 g ai/ha) | phytotoxicity rating RICE ([23]; 63 g ai/ha)
50: Post-emerge Herbicidal Activity RICE (crop damage rating) ([21]; 63 g ai/ha)
20: Post-emerge Herbicidal Activity DIGSA (phytotoxicity rating) ([11]; 63 g ai/ha)
0: Post-emerge Herbicidal Activity SORHA (phytotoxicity rating) ([15]; 63 g ai/ha)
25: Post-emerge Herbicidal Activity CORN (crop damage rating) ([20]; 63 g ai/ha)
30: Post-emerge Herbicidal Activity SETVI (phytotoxicity rating) ([13]; 63 g ai/ha)
